The source of these data is patent US8609381B2, “Methods to control bacterial growth in fermentation processes” (Dow Brasil Sudeste Industrial Ltda., priority 2007, dated 2013).

For one assay, the system named is yeast. Description: Effect of biocide on yeast level (SDA medium plate count). The class given is cell-based. Particulars: biocide concentration 50 ppm, 2 hours after contact. The source says: (§1) SDA medium is synthetic defined agar, and PCA medium is plate count agar. Dow Antimicrobial™ 7287 is a composition containing 20 percent 2,2-dibromo-3-nitrilopropionamide (DBNPA), sold by The Dow Chemical Company.

For another assay, the system named is bacteria. Description: Effect of biocide on bacteria level (PCA medium plate count). The class given is cell-based. Particulars: biocide concentration 50 ppm, 2 hours after contact.
Description: as §1

As to `O=CCCCC=O` [UCARCIDE ™ 250, glutaraldehyde], in the assay on yeast, the Yeast level is 5.0 × 10^4 cfu/ml. The Bacteria level in the assay with bacteria was 5.0 × 10^5 cfu/ml.

As for Diethyl Carbamate, the Yeast level with yeast was <1.0 × 10^4 cfu/ml. In addition, the Bacteria level in the assay with bacteria is 2.6 × 10^7 cfu/ml.
